{"source": "patent US8101199B2", "about": "“Des-methyl-tocopherol therapy for restenosis prevention” (Celonova Biosciences, Inc., priority 2003, dated 2012)", "origin": "cited, not measured here", "key": {"[1]": {"conditions": "relative to d-Alpha-Toc = 100"}, "[2]": {"system": "previously dilated artery segment", "conditions": "1200 IU/day orally for 4 months after PTCA"}, "coronary restenosis": {"system": "coronary restenosis", "conditions": "clinical trials"}, "femoral arteries": {"system": "femoral arteries", "conditions": "rabbit; three weeks after angioplasty; oral treatment beginning 19 d before angioplasty"}, "[3]": {"system": "rabbit vascular smooth muscle cells"}, "native coronary vessels": {"system": "native coronary vessels", "conditions": "addition of 200 mg for all subjects during the study"}}}
{"compound": "CC(=O)Oc1c(C)c(C)c2c(c1C)CCC(C)(CCCC(C)CCCC(C)CCCC(C)C)O2", "note": "(racemic) [dl-ALpha-Tocopherol acet.]", "values": [{"measurement": "Antioxidant Activity (d-Alpha-Toc = 100)", "setting": "[1]", "result": 0}]}
{"compound": "Cc1c(C)c2c(c(C)c1O)CCC(C)(CCCC(C)CCCC(C)CCCC(C)C)O2", "note": "(racemic) [dl-Alpha-Tocopherol]", "values": [{"measurement": "Antioxidant Activity (d-Alpha-Toc = 100)", "setting": "[1]", "result": 100}, {"measurement": "overall incidence of restenosis defined by an abnormal angiogram or thallium test or exercise stress test", "setting": "[2]", "result": 34.6, "unit": "%"}, {"measurement": "restenosis (angiographically documented)", "setting": "[2]", "result": 35.5, "unit": "%"}]}
{"compound": "CC(C)(Sc1cc(C(C)(C)C)c(O)c(C(C)(C)C)c1)Sc1cc(C(C)(C)C)c(O)c(C(C)(C)C)c1", "note": "[Probucol]", "values": [{"measurement": "prevention of coronary restenosis after balloon angioplasty", "setting": "coronary restenosis", "result": "shown to prevent coronary restenosis"}]}
{"compound": "Cc1c(C)c2c(c(C)c1O)CC[C@@](C)(CCC[C@H](C)CCC[C@H](C)CCCC(C)C)O2", "note": "[alpha-tocopherol, Alpha-Tocopherol]", "values": [{"measurement": "angiographically determined minimum luminal diameter", "setting": "femoral arteries", "result": "1.38+/−0.29 mm"}, {"measurement": "cross-sectional area of the intima-media", "setting": "femoral arteries", "result": "0.62+/−0.25 mm2"}, {"measurement": "DNA synthesis stimulated by oxidized low density lipoprotein", "setting": "[3]", "result": "inhibited DNA synthesis"}, {"measurement": "effect on restenosis rates", "setting": "native coronary vessels", "result": "no effect on restenosis rates"}]}
{"compound": "CC(=O)Oc1c(C)c(C)c2c(c1C)CC[C@@](C)(CCC[C@H](C)CCC[C@H](C)CCCC(C)C)O2", "note": "[d-Alpha-Tocopherol acet.]", "values": [{"measurement": "Antioxidant Activity (d-Alpha-Toc = 100)", "setting": "[1]", "result": 0}]}
{"compound": "Cc1c(C)c2c(c(C)c1O)CC[C@@](C)(CCC[C@H](C)CCC[C@H](C)CCCC(C)C)O2", "note": "[d-Alpha-Tocopherol]", "values": [{"measurement": "Antioxidant Activity (d-Alpha-Toc = 100)", "setting": "[1]", "result": 100}]}
{"compound": "Cc1cc(O)c(C)c2c1O[C@](C)(CCC[C@H](C)CCC[C@H](C)CCCC(C)C)CC2", "note": "[d-Beta-Tocopherol]", "values": [{"measurement": "Antioxidant Activity (d-Alpha-Toc = 100)", "setting": "[1]", "result": 130}]}
{"compound": "Cc1cc(O)cc2c1O[C@](C)(CCC[C@H](C)CCC[C@H](C)CCCC(C)C)CC2", "note": "[d-Delta-Tocopherol]", "values": [{"measurement": "Antioxidant Activity (d-Alpha-Toc = 100)", "setting": "[1]", "result": "300–500"}]}
{"compound": "Cc1c(O)cc2c(c1C)O[C@](C)(CCC[C@H](C)CCC[C@H](C)CCCC(C)C)CC2", "note": "[d-Gamma-Tocopherol]", "values": [{"measurement": "Antioxidant Activity (d-Alpha-Toc = 100)", "setting": "[1]", "result": 200}]}
{"compound": "Cc1c(O)cc2c(c1C)OC(C)(CCC(=O)O)CC2", "note": "(stereo not drawn) [gamma-CEHC, 2,7,8-trimethyl-2-(beta-carboxyethyl)-6-hydroxychroman]", "values": [{"measurement": "cyclooxygenase activity inhibition", "setting": "cyclooxygenase", "result": "inhibit cyclooxygenase activity"}]}
{"compound": "Cc1c(O)cc2c(c1C)O[C@](C)(CCC[C@H](C)CCC[C@H](C)CCCC(C)C)CC2", "note": "[gamma-tocopherol, Gamma-Tocopherol]", "values": [{"measurement": "cyclooxygenase activity inhibition", "setting": "cyclooxygenase", "result": "inhibit cyclooxygenase activity"}]}
